Reference: ChEMBL document CHEMBL1132748, “Synthesis and antiviral activities of N-9-oxypurine 1,3-dioxolane and 1,3-oxathiolane nucleosides” (2000)
Active and inactive are the calls of the source. The rule behind the calls is not given here.

Assays:
Human betaherpesvirus 5 = assay: Anti-herpetic activity and cytotoxicity evaluated against HCMV-1 (WFI strain) in plaque reduction assay in vero cells and Flow 2002 (human fibroblast) cell; inactive; format: functional, organism-based
Human alphaherpesvirus 1 [1] = assay: Anti-herpetic activity and cytotoxicity was evaluated against HSV-1 (KOS strain) in plaque reduction assay in vero cells and Flow 2002 (human fibroblast) cell; inactive; format: functional, organism-based
[2] = system: Human immunodeficiency virus; assay: Antiviral activity was assessed against HIV in MT-4 (human T-helper) cells at a concentration up to 100 ug/mL; inactive; format: functional, organism-based
Hepatitis B virus = assay: Antiviral activity was assessed against HBV in hepatoma cell line 2.2.15; inactive; format: functional, organism-based; settings: HepG2 2.2.15
Human alphaherpesvirus 2 [3] = assay: Anti-herpetic activity and cytotoxicity was evaluated against HSV-2 (186 strain) in plaque reduction assay in vero cells and Flow 2002 (human fibroblast) cell; inactive; format: functional, organism-based
Homo sapiens = species: Homo sapiens; assay: Cytotoxicity was assessed against in MT-4 (human T-helper) cells at a concentration up to 100 ug/mL; inactive; format: functional, cell-based
Human alphaherpesvirus 1 [4] = assay: Anti-herpetic activity and cytotoxicity of compound was evaluated against HSV-1 (KOS strain) at concentration up to 100 ug/mL; inactive; format: functional, organism-based
Human alphaherpesvirus 2 [5] = assay: Anti-herpetic activity and cytotoxicity of compound was evaluated against HSV-2 (186 strain) at concentration 100 ug/mL; inactive; format: functional, organism-based
[6] = system: Human immunodeficiency virus; assay: Cytotoxicity of compound was assessed against HIV in MT-4 (human T-helper) cells; inactive; format: functional

Structure (SMILES) | Activity (Human betaherpesvirus 5) | Activity (Human alphaherpesvirus 1 [1]) | Activity [2] | Activity (Hepatitis B virus) | Activity (Human alphaherpesvirus 2 [3]) | Activity (Homo sapiens) | Activity (Human alphaherpesvirus 1 [4]) | Activity (Human alphaherpesvirus 2 [5]) | CD50 [6] [µg/mL]
COc1ncnc2c1ncn2O[C@@H]1CSC(CO)O1 (stereo not given in full) | inactive | inactive | inactive | inactive | inactive | inactive |  |  | 
OCC1O[C@@H](On2cnc3c(Cl)ncnc32)CS1 (stereo not given in full) | inactive | inactive | inactive | inactive | inactive | inactive |  |  | 
OCC1O[C@H](On2cnc3c(Cl)ncnc32)CS1 (stereo not given in full) | inactive | inactive | inactive | inactive | inactive | inactive |  |  | 
Nc1nc(O)c2ncn(O[C@@H]3COC(CO)O3)c2n1 (stereo not given in full) |  |  |  |  |  |  | inactive | inactive | 
COc1ncnc2c1ncn2O[C@H]1CSC(CO)O1 (stereo not given in full) | inactive | inactive | inactive | inactive | inactive | inactive |  |  | 
OCC1OC[C@H](On2cnc3c(Cl)ncnc32)O1 (stereo not given in full) | inactive | inactive | inactive | inactive | inactive | inactive |  |  | 
OCC1OC[C@@H](On2cnc3c(O)ncnc32)O1 (stereo not given in full) | inactive | inactive | inactive | inactive | inactive | inactive |  |  | 
Nc1ncnc2c1ncn2O[C@@H]1COC(CO)O1 (stereo not given in full) | inactive | inactive | inactive | inactive | inactive | inactive |  |  | 
Nc1ncnc2c1ncn2O[C@@H]1CSC(CO)O1 (stereo not given in full) | inactive | inactive | inactive | inactive | inactive | inactive |  |  | 
COc1ncnc2c1ncn2O[C@@H]1COC(CO)O1 (stereo not given in full) | inactive | inactive | inactive | inactive | inactive | inactive |  |  | 
Nc1ncnc2c1ncn2O[C@H]1COC(CO)O1 (stereo not given in full) | inactive | inactive | inactive | inactive | inactive | inactive |  |  | 
Nc1nc(O)c2ncn(O[C@H]3COC(CO)O3)c2n1 (stereo not given in full) |  |  |  |  |  |  | inactive | inactive | 
OCC1OC[C@@H](On2cnc3c(Cl)ncnc32)O1 (stereo not given in full) | inactive | inactive | inactive | inactive | inactive | inactive |  |  | 
OCC1O[C@@H](On2cnc3c(O)ncnc32)CS1 (stereo not given in full) | inactive | inactive | inactive | inactive | inactive |  |  |  | 10
OCC1OC[C@H](On2cnc3c(O)ncnc32)O1 (stereo not given in full) | inactive | inactive | inactive | inactive | inactive | inactive |  |  | 
COc1ncnc2c1ncn2O[C@H]1COC(CO)O1 (stereo not given in full) | inactive | inactive | inactive | inactive | inactive | inactive |  |  | 
Nc1ncnc2c1ncn2O[C@H]1CSC(CO)O1 (stereo not given in full) | inactive | inactive | inactive | inactive | inactive | inactive |  |  | 
OCC1O[C@H](On2cnc3c(O)ncnc32)CS1 (stereo not given in full) | inactive | inactive | inactive | inactive | inactive | inactive |  |  | 
